Reference: ChEMBL document CHEMBL5523741, “Development of an Orally Bioavailable LCK PROTAC Degrader as a Potential Therapeutic Approach to T-Cell Acute Lymphoblastic Leukemia” (J Med Chem, 2024)
≈ marks a conversion by molar mass, not a printed value. Calls of active or inactive are those of the source. No cut-off for these calls is given here.

What was measured:
KOPTK1 [1] = assay: Antiproliferative activity against human KOPT-K1 cells assessed as effect on cell viability measured for 72 hrs by celltiter glo assay; assay type: functional; conditions: read-out: LC50 (the source's name)
[2] = target: T1, Protein cereblon/Tyrosine-protein kinase Lck (Homo sapiens, UniProt P06239+Q96SW2); assay: PROTAC activity at HiBit-tagged LCK/CRBN in human KOPT-K1 cells assessed as induction of LCK degradation incubated for 6 hrs by Nano-Glo HiBiT assay; assay type: cell-based
T1 sequence (P06239 2-509 limits assumed): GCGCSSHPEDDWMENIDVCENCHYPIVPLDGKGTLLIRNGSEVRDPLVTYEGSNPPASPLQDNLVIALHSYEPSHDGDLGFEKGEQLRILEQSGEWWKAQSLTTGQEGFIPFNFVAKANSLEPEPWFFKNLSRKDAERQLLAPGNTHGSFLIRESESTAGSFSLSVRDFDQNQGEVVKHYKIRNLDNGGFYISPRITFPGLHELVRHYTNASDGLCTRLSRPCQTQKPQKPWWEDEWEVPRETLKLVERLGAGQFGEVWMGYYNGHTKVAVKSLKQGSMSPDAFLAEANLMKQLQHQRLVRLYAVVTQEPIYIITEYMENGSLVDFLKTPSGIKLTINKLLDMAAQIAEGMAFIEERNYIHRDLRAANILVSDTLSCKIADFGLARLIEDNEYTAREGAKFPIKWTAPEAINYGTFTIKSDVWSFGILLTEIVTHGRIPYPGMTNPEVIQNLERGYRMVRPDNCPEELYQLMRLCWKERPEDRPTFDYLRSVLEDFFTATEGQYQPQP
T1 sequence (Q96SW2 whole entry partner): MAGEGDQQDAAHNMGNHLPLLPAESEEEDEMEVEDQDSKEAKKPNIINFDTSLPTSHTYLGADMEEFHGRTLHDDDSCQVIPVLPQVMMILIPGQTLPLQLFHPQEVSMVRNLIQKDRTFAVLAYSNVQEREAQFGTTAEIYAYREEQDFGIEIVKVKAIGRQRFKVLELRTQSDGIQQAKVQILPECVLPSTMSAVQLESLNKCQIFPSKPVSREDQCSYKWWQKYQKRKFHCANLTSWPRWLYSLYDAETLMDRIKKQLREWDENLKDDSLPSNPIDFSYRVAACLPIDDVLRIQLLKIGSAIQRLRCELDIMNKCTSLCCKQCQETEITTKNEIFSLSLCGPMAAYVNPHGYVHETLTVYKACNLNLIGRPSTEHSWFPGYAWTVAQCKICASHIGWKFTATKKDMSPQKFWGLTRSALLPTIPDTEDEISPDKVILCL

[3] = Metabolic stability in mouse liver microsomes assessed as half life in presence of NADPH by UPLC-MS/MS analysis; assay type: ADME, Microsome
[4] = Apparent permeability of compound across apical to basolateral side in human Caco-2 cells; assay type: ADME, cell-based
[5] = Drug concentration in CD-1 mouse plasma at 30 mg/kg, po measured after 4 hrs by UPLC-MS/MS analysis; assay type: ADME, organism-based
[6] = Apparent permeability of compound across basolateral to apical side in human Caco-2 cells; assay type: ADME, cell-based
[7] = Stability in CD-1 mouse plasma assessed as half life; assay type: ADME, cell-free
[8] = Aqueous solubility of the compound incubated for 18 hrs by UPLC-SQDMS; assay type: physicochemical; conditions: buffer
[9] = target: T1, Protein cereblon/Tyrosine-protein kinase Lck; assay: PROTAC activity at HiBit-tagged LCK/CRBN in human KOPT-K1 cells assessed as induction of LCK degradation incubated for 6 hrs by Nano-Glo HiBiT assay relative to control; assay type: cell-based
KOPTK1 [10] = assay: Antiproliferative activity against human KOPT-K1 cells assessed as inhibition of cell growth at 100 nM measured for 18 hrs by celltiter glo assay; assay type: functional, cell-based
KOPTK1 [11] = assay: Downregulation of EPHB1 in human KOPT-K1 cells measured for 6 hrs by tandem mass tag proteomic assay; assay type: functional, cell-based
KOPTK1 [12] = assay: Antiproliferative activity against human KOPT-K1 cells assessed as inhibition of cell growth at 100 nM measured for 160 hrs by celltiter glo assay; assay type: functional, cell-based
KOPTK1 [13] = assay: Downregulation of CISH in human KOPT-K1 cells measured for 6 hrs by tandem mass tag proteomic assay; assay type: functional, cell-based
KOPTK1 [14] = assay: Downregulation of CSK in human KOPT-K1 cells measured for 6 hrs by tandem mass tag proteomic assay; assay type: functional, cell-based

half-life [3] | Papp A→B [4] | concentration at 4 h [5] | Papp B→A [6] | half-life [7] | solubility at 18 h [8] | Emax [9] | Compound | further results
– | – | – | – | – | – | – | Cc1nc(Nc2ncc(C(=O)Nc3c(C)cccc3Cl)s2)cc(N2CCC(CN3CCN(c4ccc(C5CCC(=O)N(C)C5=O)cc4)CC3)CC2)n1 (centres undefined) | CC50 (KOPTK1 [1]): 1.98 nM; Activity [2]: inactive
0.54 h | 1.32 ×10⁻⁶ cm/s | 1.19 ng/mL | 1.55 ×10⁻⁶ cm/s | 4.25 h | 15.2 µM (≈ 12.1 µg/mL) | 88% | Cc1nc(Nc2ncc(C(=O)Nc3c(C)cccc3Cl)s2)cc(N2CCN(C(=O)CCCN3CC4CC3CN4c3ccc(C4CCC(=O)NC4=O)cc3)CC2)n1 (centres undefined) | –
6.9 h | – | – | – | – | 2.08 µM (≈ 1.58 µg/mL) | 90% | Cc1nc(Nc2ncc(C(=O)Nc3c(C)cccc3Cl)s2)cc(N2CCN(CCCN3CCN(c4ccc(C5CCC(=O)NC5=O)cc4)CC3)CC2)n1 (centres undefined) | –
– | – | – | – | – | – | – | Cc1nc(Nc2ncc(C(=O)Nc3c(C)cccc3Cl)s2)cc(N2CCN(CCO)CC2)n1 | Activity (KOPTK1 [10]): Active; Activity (KOPTK1 [11]): Active; Activity (KOPTK1 [12]): inactive; Activity (KOPTK1 [13]): Active; Activity (KOPTK1 [14]): Active
0.32 h | – | – | – | – | 0.19 µM (≈ 0.152 µg/mL) | 90% | Cc1nc(Nc2ncc(C(=O)Nc3c(C)cccc3Cl)s2)cc(N2CCN(CCCC(=O)N3CC4CC3CN4c3ccc(C4CCC(=O)NC4=O)cc3)CC2)n1 (centres undefined) | –
1.06 h | – | – | – | – | 0.15 µM (≈ 0.118 µg/mL) | 93% | Cc1nc(Nc2ncc(C(=O)Nc3c(C)cccc3Cl)s2)cc(N2CCN(CCCC(=O)N3CCN(c4ccc(C5CCC(=O)NC5=O)cc4)CC3)CC2)n1 (centres undefined) | –
2.2 h | – | – | – | – | – | < 60% | Cc1nc(Nc2ncc(C(=O)Nc3c(C)cccc3Cl)s2)cc(N2CCC3(CCN(c4ccc(C5CCC(=O)NC5=O)cc4)CC3)CC2)n1 (centres undefined) | –
10 h | 0.231 ×10⁻⁶ cm/s | 18 ng/mL | 5.3 ×10⁻⁶ cm/s | 47.4 h | 1.4 µM (≈ 1.16 µg/mL) | 93% | Cc1nc(Nc2ncc(C(=O)Nc3c(C)cccc3Cl)s2)cc(N2CCN(CCCN3CCC4(CC3)CCN(c3ccc(C5CCC(=O)NC5=O)cc3)CC4)CC2)n1 (centres undefined) | –
10 h | 1.04 ×10⁻⁶ cm/s | 54 ng/mL | 9.82 ×10⁻⁶ cm/s | 4.98 h | 2.57 µM (≈ 1.94 µg/mL) | 87% | Cc1nc(Nc2ncc(C(=O)Nc3c(C)cccc3Cl)s2)cc(N2CCN(CCCN3CCC(c4ccc(C5CCC(=O)NC5=O)cc4)CC3)CC2)n1 (centres undefined) | –
